Measured values as given in ChEMBL document CHEMBL3714758, “3H-imidazo[4,5-b]pyridin-5-ol derivatives useful in the treatment of GPR81 receptor disorders” (2013).
Active and inactive are the calls of the source. The rule behind the calls is not given here.

How the values were obtained:
Mus musculus = assay: Reduction in circulating free fatty acids in food-deprived C57/B16 mouse at 100 mg/kg, ip measured after 30 mins by NEFA assay; format: functional, organism-based
Rattus norvegicus = assay: Reduction in circulating free fatty acids in food-deprived Sprague-Dawley rat at 1 to 100 mg/kg, po measured after 10 to 240 mins post dose by NEFA assay; format: functional, organism-based
Adipocyte = assay: Inhibition of lipolysis in Sprague-Dawley rat epididymal adipocytes pre-incubated for 10 mins before theophylline addition followed by further incubation for 3 hrs by microplate reader based assay; format: functional, cell-based

Row | Structure (SMILES) | inhibition (Mus musculus) | inhibition (Rattus norvegicus) | IC50 (Adipocyte) [µM]
1 | Oc1ccc2ncn(-c3ccccc3Cl)c2n1 | Active | Active | 0.234
2 | Oc1ccc2ncn(-c3ccccc3C(F)(F)F)c2n1 | Active |  | 
3 | O=C(O)c1cccnc1 | Active |  | 
